In article PMC6316731 (Brain Sciences, 2018):

System: GABA induced current in MSNs (GABAA receptors with δ subunits / GABAC receptors)
Type: cell-based, mouse

## Oc1noc2c1CCNC2 [Gaboxadol, 4,5,6,7-tetrahydroisoxazolo (5,4-c) pyridin-3-ol]
  Effect on IGABA: concentration-dependent reduction in IGABA
read-out: EC50, percent reduction in current by Gaboxadol
  EC50: 9.81 ± 3.56 µM
